One assay has as its system HCT116 MTAP null cells. Description: HCT116 MTAP null cell line proliferation (CellTiter-Glo cell viability, 6 days). In kind it is cell-based. As to conditions: HCT116 MTAP null cells, 6 days of treatment, CellTiter-Glo cell viability, read-out: HCT-116 MTAP null IC50. The procedure:
(§1) To assess selective anti-proliferative activity of compounds of the invention in cells that have loss expression of MTAP, an HCT-116 isogenic cell line pair was utilized where one cell line was engineered to genetically knockout both MTAP alleles. Cell viability was then assessed in both the parent HCT-116 cell line and the MTAP null cell line after 6 days of treatment with compounds of the present invention. Selective anti-proliferative activity in the MTAP null cell line indicates MTA-cooperative inhibition of PRMT5 and ability to inhibit growth of cancer cells that have loss of MTAP.
(§2) HCT116 MTAP null and WT cells were seeded in 96-well tissue culture plates in RPMI 1640 media+10% fetal bovine serum. Plates were incubated overnight at 37° C. and 5% CO2. Cells were then treated with an 8- or 9-point serial dilution of compound, using a top concentration of 1, or 10 μM, 1:3 serial dilution steps and, a DMSO-only control. Cells were incubated in the presence of drug for 6 days. Effects on cell viability were measured with the CellTiter-Glo® Luminescent Cell Viability Assay (Promega) per manufacturer's recommendation. Assay plates were read on an EnVision™ Multilabel Reader using the Ultra-Sensitive luminescence module. IC50 values were calculated with GraphPad Prism v 5.01 using symmetrical sigmoidal dose-response least squares fit with Hill slope fixed to −1 and top constrain to 100% or GeneData Screener using a 4-parameter logistic model to fit dose response curves.
(§3) Alternatively, compounds could be assayed with a 384 well plate format:
(§4) Compounds were pre-spotted into 384 well plates with a 22-point serial dilution of compound, using a top concentration of 10 or 50 μM, 1:2 serial dilution steps and, a DMSO-only control. HCT116 MTAP null and WT cells were then seeded as above and after 6 days effects on cell viability were measured with the CellTiter-Glo® Luminescent Cell Viability Assay (Promega). Assay plates were read as above and IC50 values were calculated with GeneData Screener using a 4-parameter logistic model to fit dose response curves. The reported IC50 represents the value where the curve transits 50% of control.
For orientation: In ATP-based viability assays light output follows the ATP content of the culture.

For a further assay, the system named is HCT116 WT cells. Put plainly: HCT116 WT cell line proliferation (CellTiter-Glo cell viability, 6 days). In kind it is cell-based. As to conditions: HCT116 WT (parent) cells, 6 days of treatment, CellTiter-Glo cell viability, read-out: HCT-116 WT IC50. The protocol:
as §1, §2, §3, §4

pIC50: −log10 of the molar value. Like-named read-outs stand apart in the source and are kept apart here.

By pIC50 is commonly meant −log10 of the IC50, conventionally taken in molar units.

On to `Nc1nc2ccc(C(=O)N3CCC(F)(F)CC3c3ccc(Br)cc3)cc2c2c1COC2` (racemic) [Example 368, (4-amino-1,3-dihydrofuro[3,4-c]quinolin-8-yl)-[rac-(2R)-2-(4-bromophenyl)-4,4-difluoro-1-piperidyl]methanone], for which the pIC50 is 6.34 in the assay with HCT116 MTAP null cells (HCT116-MTAP null, 144 h) and 5.69 in the assay on HCT116 WT cells (Homo sapiens, HCT-116, 144 h).
`Cn1ncc2c(N)nc3cc(C(F)(F)F)c(C(=O)N4CC[C@H](c5ccc(C(F)(F)F)cc5)C4)cc3c21` [Example 547, (4-amino-1-methyl-7-(trifluoromethyl)-1H-pyrazolo[4,3-c]quinolin-8-yl)((3R)-3-(4-(trifluoromethyl)phenyl)-1-pyrrolidinyl)methanone]: the negative-log IC50 (pIC50) with HCT116 MTAP null cells (HCT116-MTAP null, 144 h) is 6.40; in the assay on HCT116 WT cells (Homo sapiens, HCT-116, 144 h) it was 5.41.
`CC(C)(C)OC(=O)N1CCN(C(=O)c2cc3c4c(c(N)nc3cn2)COC4)[C@@H](c2ccc(C(F)(F)F)cc2)C1` (single isomer, unassigned) [Example 589]: the pIC50 in the assay with HCT116 MTAP null cells was 5.29; with HCT116 WT cells, below 5.00.
For the compound `C[C@H]1COC[C@@H](c2ccc(OC(F)(F)F)cn2)N1C(=O)c1cc2c3c(c(N)nc2cc1Cl)COC3` (racemic) [Example 375, (4-amino-7-chloro-1,3-dihydrofuro[3,4-c]quinolin-8-yl)((3R,5S)-3-methyl-5-(5-(trifluoromethoxy)-2-pyridinyl)-4-morpholinyl)methanone and (4-amino-7-chloro-1,3-dihydrofuro[3,4-c]quinolin-8-yl)((3S,5R)-3-methyl-5-(5-(trifluoromethoxy)-2-pyridinyl)-4-morpholinyl)methanone], the pIC50 in the assay with HCT116 MTAP null cells (HCT116-MTAP null, 144 h) is 8.52; with HCT116 WT cells (Homo sapiens, HCT-116, 144 h), 7.24.
The matching figures for `Nc1nc2cnc(C(=O)N3CCOC[C@H]3c3cnc(C(F)(F)F)nc3)cc2c2c1COC2` (single isomer, unassigned) [Example 611]: below 6.00 and below 5.00.
For the compound `Cn1ncc2c(N)nc3cnc(C(=O)N4CCOC[C@@H]4c4ccc(C(F)(F)F)cc4)cc3c21` [Example 371, (4-amino-1-methyl-1H-pyrazolo[4,3-c][1,7]naphthyridin-8-yl)((3S)-3-(4-(trifluoromethyl)phenyl)-4-morpholinyl)methanone], the pIC50 with HCT116 MTAP null cells (HCT116-MTAP null, 144 h) was 7.66; with HCT116 WT cells (Homo sapiens, HCT-116, 144 h), 6.15.
For `Nc1nc2cc(Cl)c(C(=O)N3CCOC[C@@H]3c3ccc(C(F)(F)F)cc3)cc2c2c1COC2` [Example 529, (4-amino-7-chloro-1,3-dihydrofuro[3,4-c]quinolin-8-yl)((3S)-3-(4-(trifluoromethyl)phenyl)-4-morpholinyl)methanone], the pIC50 in the assay with HCT116 MTAP null cells (HCT116-MTAP null, 144 h) was 7.74; in the assay with HCT116 WT cells (Homo sapiens, HCT-116, 144 h), 6.30.
Consider `C[C@H]1OCc2c1c(N)nc1ccc(C(=O)N3CC[C@](O)(c4ccc(C(F)(F)F)cc4)C3)cc21` [Example 435, ((3R)-4-amino-3-methyl-1,3-dihydrofuro[3,4-c]quinolin-8-yl)((3S)-3-hydroxy-3-(4-(trifluoromethyl)phenyl)-1-pyrrolidinyl)methanone], for which the pIC50 in the assay on HCT116 MTAP null cells (HCT116-MTAP null, 144 h) is 6.60; with HCT116 WT cells (Homo sapiens, HCT-116, 144 h), 5.42.
Taken in the same sequence, the figures for `CCOc1ccc([C@@H]2COC[C@H](C)N2C(=O)c2cc3c4c(c(N)nc3cn2)COC4)nn1` (racemic) [Example 320, (4-amino-1,3-dihydrofuro[3,4-c][1,7]naphthyridin-8-yl)((3R,5S)-3-(6-ethoxy-3-pyridazinyl)-5-methyl-4-morpholinyl)methanone and (4-amino-1,3-dihydrofuro[3,4-c][1,7]naphthyridin-8-yl)((3S,5R)-3-(6-ethoxy-3-pyridazinyl)-5-methyl-4-morpholinyl)methanone] were 7.00 and 5.43.
Taken in the same sequence, the figures for `C[C@H]1COC[C@@H](c2ccc(C(F)(F)F)nc2)N1C(=O)c1cc2c3c(c(N)nc2cc1Cl)COC3` (racemic) [Example 302, (4-amino-7-chloro-1,3-dihydrofuro[3,4-c]quinolin-8-yl)((3R,5S)-3-methyl-5-(6-(trifluoromethyl)-3-pyridinyl)-4-morpholinyl)methanone and (4-amino-7-chloro-1,3-dihydrofuro[3,4-c]quinolin-8-yl)((3S,5R)-3-methyl-5-(6-(trifluoromethyl)-3-pyridinyl)-4-morpholinyl)methanone] were 7.96 and 6.78.
In the case of `Cn1ncc2c(N)nc3cc(F)c(C(=O)N4CCOC[C@@H]4c4ccc(F)cc4)cc3c21` [Example 545, (4-amino-7-fluoro-1-methyl-1H-pyrazolo[4,3-c]quinolin-8-yl)((3S)-3-(4-fluorophenyl)-4-morpholinyl)methanone], the pIC50 is 7.51 in the assay on HCT116 MTAP null cells (HCT116-MTAP null, 144 h) and 5.84 in the assay with HCT116 WT cells (Homo sapiens, HCT-116, 144 h).
Taken in the same sequence, the figures for `CC1(C)OCc2c1c(N)nc1ccc(C(=O)N3CCOC[C@@H]3c3ccc(OC(F)(F)F)cc3)cc21` [Example 382, (4-amino-3,3-dimethyl-1H-furo[3,4-c]quinolin-8-yl)-[(3S)-3-[4-(trifluoromethoxy)phenyl]morpholin-4-yl]methanone] were 6.10 and below 5.00.
Taken in the same sequence, the figures for `Nc1nc2ccc(C(=O)N3CCOC[C@H]3c3ccc(C(F)(F)F)nc3)cc2c2c1COC2` (single isomer, unassigned) [Example 610] were below 6.00 and below 5.00.
As for `C[C@H]1OCc2c1c(N)nc1ccc(C(=O)N3CCOC[C@@H]3c3ccc(C(F)(F)C(F)(F)F)cc3)cc21` [Example 336, ((3R)-4-amino-3-methyl-1,3-dihydrofuro[3,4-c]quinolin-8-yl)((3S)-3-(4-(pentafluoroethyl)phenyl)-4-morpholinyl)methanone], the pIC50 is 7.41 in the assay on HCT116 MTAP null cells (HCT116-MTAP null, 144 h) and 5.79 in the assay with HCT116 WT cells (Homo sapiens, HCT-116, 144 h).
For the compound `C[C@@H]1OCc2c1c(N)nc1cnc(C(=O)N3[C@H](C)COC[C@@H]3c3ccc(OC(F)(F)F)cn3)cc21` (racemic) [Example 379, ((3S)-4-amino-3-methyl-1,3-dihydrofuro[3,4-c][1,7]naphthyridin-8-yl)((3R,5S)-3-methyl-5-(5-(trifluoromethoxy)-2-pyridinyl)-4-morpholinyl)methanone and ((3S)-4-amino-3-methyl-1,3-dihydrofuro[3,4-c][1,7]naphthyridin-8-yl)((3S,5R)-3-methyl-5-(5-(trifluoromethoxy)-2-pyridinyl)-4-morpholinyl)methanone], the pIC50 with HCT116 MTAP null cells (HCT116-MTAP null, 144 h) is 6.03; in the assay with HCT116 WT cells (Homo sapiens, HCT-116, 144 h) it was below 5.00.
The matching figures for `C[C@H]1OCc2c1c(N)nc1ccc(C(=O)N3[C@@H](C)COC[C@H]3c3ccc(OC(F)(F)F)cc3F)cc21` (racemic) [Example 329, ((3R)-4-amino-3-methyl-1,3-dihydrofuro[3,4-c]quinolin-8-yl)((3R,5S)-3-(2-fluoro-4-(trifluoromethoxy)phenyl)-5-methyl-4-morpholinyl)methanone and ((3R)-4-amino-3-methyl-1,3-dihydrofuro[3,4-c]quinolin-8-yl)((3S,5R)-3-(2-fluoro-4-(trifluoromethoxy)phenyl)-5-methyl-4-morpholinyl)methanone]: 7.30 and 5.82.
As to `Cn1ncc2c(N)nc3cc(F)c(C(=O)N4CC[C@@H](Oc5ccc(C(F)(F)F)cn5)C4)cc3c21` (single isomer, unassigned) [Example 475], the values for the negative-log IC50 (pIC50) in the assay on HCT116 MTAP null cells and in the assay on HCT116 WT cells were 6.76 and 5.02, respectively.
On to `Cn1ncc2c(N)nc3cc(F)c(C(=O)N4CCOC[C@@H]4c4ccc(C(F)(F)F)cn4)cc3c21` [Example 558, (4-amino-7-fluoro-1-methyl-1H-pyrazolo[4,3-c]quinolin-8-yl)((3S)-3-(5-(trifluoromethyl)-2-pyridinyl)-4-morpholinyl)methanone], for which the pIC50 in the assay with HCT116 MTAP null cells (HCT116-MTAP null, 144 h) was 7.77; with HCT116 WT cells (Homo sapiens, HCT-116, 144 h) it was 6.20.
On to `Nc1nc2ccc(C(=O)N3CCOC[C@H]3c3ccc(Br)cn3)cc2c2c1COC2` (single isomer, unassigned) [Example 572], for which the pIC50 was below 6.00 with HCT116 MTAP null cells (HCT116-MTAP null, 144 h) and below 5.00 in the assay on HCT116 WT cells (Homo sapiens, HCT-116, 144 h).
Consider `C[C@H]1COC[C@@H](c2ccc(C(F)(F)F)cn2)N1C(=O)c1cc2c3c(c(N)nc2cc1Cl)COC3` (racemic) [Example 301, (4-amino-7-chloro-1,3-dihydrofuro[3,4-c]quinolin-8-yl)((3R,5S)-3-methyl-5-(5-(trifluoromethyl)-2-pyridinyl)-4-morpholinyl)methanone and (4-amino-7-chloro-1,3-dihydrofuro[3,4-c]quinolin-8-yl)((3S,5R)-3-methyl-5-(5-(trifluoromethyl)-2-pyridinyl)-4-morpholinyl)methanone], for which the negative logarithm of the IC50 (pIC50) was 8.22 with HCT116 MTAP null cells (HCT116-MTAP null, 144 h) and 7.22 in the assay on HCT116 WT cells (Homo sapiens, HCT-116, 144 h).

The record behind these values is patent US11845760B2, “PRMT5 inhibitors” (AMGEN INC., priority 2020, dated 2023).
